Holding throughout (assay): NCI anticancer screen, dose series, 48 h
The test system of assay [1] is HCT-15 colon.
The test system of assay [2] is M14 melanoma.
In assay [3] the test system is MALME-3M melanoma.
Assay [4] deals with MDA-MB-231 breast.
Assay [5] concerns PC-3 prostate.
In assay [6] the test system is SK-MEL-5 melanoma.
Assay [7] has as its system SW-620 colon.
The subject of assay [8] is T-47D breast.
Assay [9] has as its system TK-10 renal.
Assay [10] concerns UACC-62 melanoma.

Structures are written as SMILES.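 All cell lines were grown in 96-well plates and treated with compound for 48 hours. GI50 marks 50% less growth. TGI marks complete inhibition of growth.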

For `CC/C(=C(\CC)c1ccc(OCCN(CC)CC)cc1)c1ccc(OCCN(CC)CC)cc1`, the GI50 in assay [1] was 1.74 µM; in assay [2], 0.771 µM; in assay [3], 1.81 µM; in assay [4] it was 1.76 µM; in assay [5] it was 3.25 µM; in assay [6], 1.48 µM. Also, the GI50 in [7] was 2.33 µM; in [8] it was 2.65 µM; in assay [9], 3.34 µM; in [10], 1.92 µM. The TGI came out at 11.2 µM in assay [1]; 2.27 µM in [2]; 5.87 µM in assay [3]; 5.82 µM in [4]; 19.5 µM in [5]; 2.86 µM in assay [6]. The TGI in [7] turned out to be 7.79 µM; in assay [8], 6.73 µM; in assay [9], 12.1 µM; in assay [10], 4.29 µM.

As to `Cc1ccc(C(=O)NC2CCCCC2)cc1-c1ccc(C(=O)NCC2CC2)cc1`, the GI50 in assay [1] was over 25 µM; in assay [2], over 25 µM; in assay [3], over 25 µM; in [4] it was over 25 µM; in assay [5], over 22.8 µM; in [6], 19.9 µM. The GI50 in assay [7] is over 25 µM; in [8], 9.51 µM; in [9], over 25 µM; in assay [10] it was 17 µM. Also, the TGI in [1], in [2], in assay [3], in assay [4], in assay [5] and in assay [6] was over 25 µM throughout. The TGI in assay [7], in assay [8], in assay [9] and in assay [10] was over 25 µM throughout.

Take `Cc1cc(C)nc(SC2=C(Nc3cccc(Cl)c3)C(=O)N(Cc3ccccc3)C2=O)n1`: the GI50 is over 170 µM in assay [1]; 39.6 µM in assay [2]; over 170 µM in [3]; over 170 µM in [4]; over 170 µM in assay [5]; over 170 µM in [6]. In addition, the GI50 in assay [7] is over 170 µM; in [8] it was over 170 µM; in assay [9] it was over 170 µM; in [10] it was 34.9 µM. The TGI in assay [1], in assay [2], in assay [3], in assay [4], in [5] and in assay [6] was over 170 µM in each case. Moreover, the TGI in assay [7], in assay [8], in assay [9] and in assay [10] was over 170 µM throughout.

As for `C=C[C@]1(C)C=C2C(=O)[C@@]3(O)OC(=O)[C@@]4(CCCC(C)(C)[C@H]34)[C@@]2(O)CC1`, the GI50 in [1] is 0.79 µM; in assay [2] it was 1.79 µM; in assay [3], 0.926 µM; in [4], 1.46 µM; in assay [5] it was 1.45 µM; in [6], 1.58 µM. For the same molecule, the GI50 is 0.955 µM in assay [7], 1.09 µM in [8], 1.49 µM in assay [9] and 1.37 µM in assay [10]. In addition, the TGI in assay [1] came out at 3.05 µM; in assay [2] it was 3.82 µM; in assay [3], 2.8 µM; in assay [4], 3.43 µM; in assay [5], 5.08 µM; in assay [6], 2.97 µM. The TGI is 3.36 µM in assay [7], 3.49 µM in assay [8], 2.92 µM in assay [9] and 2.92 µM in assay [10].

For the molecule `CCOC(=O)c1c(Cl)c2c(n1Cc1cc(OC)cc(OC)c1)-c1oncc1CCC2`, the GI50 is 0.387 µM in assay [1]; 0.266 µM in [2]; 0.118 µM in assay [3]; 0.812 µM in [4]; 0.293 µM in assay [5]; 0.451 µM in [6]. For the same molecule, the GI50 is 0.344 µM in [7], 0.445 µM in assay [8], 10.3 µM in assay [9] and 0.193 µM in assay [10]. The TGI was over 100 µM in [1]; over 100 µM in [2]; over 91.7 µM in assay [4]; over 100 µM in [5]; over 100 µM in assay [6]; over 100 µM in [7]. Further, the TGI in assay [8], in [9] and in [10] was over 100 µM each time.

Regarding `NC(=O)Oc1cc(OC(N)=O)cc(N(CCCl)CCCl)c1`, the GI50 in assay [1] was 6.31 µM; in assay [2], 5.74 µM; in assay [3] it was 5.73 µM; in assay [4] it was 25.9 µM; in assay [5] it was 7.1 µM; in assay [6], 6.93 µM. Further, the GI50 in assay [7] was 7.59 µM; in assay [8], 7.78 µM; in [9], 19.3 µM; in assay [10], 4.1 µM. Also, the TGI in assay [1] is over 100 µM; in assay [2], 30.9 µM; in assay [3], 23.3 µM; in assay [4] it was over 100 µM; in assay [5], 54.8 µM; in assay [6], 52.5 µM. Further, the TGI in [7] was over 100 µM; in assay [8] it was over 100 µM; in [9], 55.9 µM; in [10], 18.4 µM.
